Laboratory results as given in US7981893B2, “Heteroaryl compounds, compositions thereof, and methods of treatment therewith” (Signal Pharmaceuticals, LLC, priority 2006, dated 2011).

Compound	melting point
O=C1CCC(Cn2c(=O)[nH]c3ncc(-c4ccc(O)cc4)nc32)N1 (centres unmarked) [Compound 198, 6-(4-Hydroxyphenyl)-1-((5-oxopyrrolidin-2-yl)methyl)-1H-imidazo[4,5-b]pyrazin-2(3H)-one]	338 to 340 °C
Cc1nc(-c2ccc(-c3cnc4[nH]c(=O)n(CC5CCOCC5)c4n3)cc2)[nH]c1C [Compound 199, 6-(4-(4,5-Dimethyl-1H-imidazol-2-yl)phenyl)-1-((tetrahydro-2H-pyran-4-yl)methyl)-1H-imidazo[4,5-b]pyrazin-2(3H)-one]	250 to 254 °C (dec.)
O=c1[nH]c2ncc(-c3ccc(-c4nc[nH]n4)nc3)nc2n1CC1CCOCC1 [Compound 202, 6-(6-(1H-1,2,4-Triazol-3-yl)pyridin-3-yl)-1-((tetrahydro-2H-pyran-4-yl)methyl)-1H-imidazo[4,5-b]pyrazin-2(3H)-one]	353 to 356 °C
O=C1CCCN1CCn1c(=O)[nH]c2ncc(-c3ccc(-c4nc[nH]n4)cc3)nc21 [Compound 203, 6-(4-(1H-1,2,4-Triazol-3-yl)phenyl)-1-(2-(2-oxopyrrolidin-1-yl)ethyl)-1H-imidazo[4,5-b]pyrazin-2(3H)-one]	300 to 301 °C
COCCNc1ncc(-c2cnc3[nH]c(=O)n(CC4CCCCC4)c3n2)cn1 [Compound 212, 1-(Cyclohexylmethyl)-6-(2-(2-methoxyethylamino)pyrimidin-5-yl)-1H-imidazo[4,5-b]pyrazin-2(3H)-one]	> 250 °C
Cc1nc(-c2ccc(-c3cnc4[nH]c(=O)n(CCC5CCOCC5)c4n3)cc2)n[nH]1 [Compound 215, 6-(4-(5-methyl-1H-1,2,4-triazol-3-yl)phenyl)-1-(2-(tetrahydro-2H-pyran-4-yl)ethyl)-1H-imidazo[4,5-b]pyrazin-2(3H)-one]	290 to 292 °C
O=c1[nH]c2ncc(-c3ccc(-c4ncc[nH]4)cc3)nc2n1CCC1CCOCC1 [Compound 216, 6-(4-(1H-imidazol-2-yl)phenyl)-1-(2-(tetrahydro-2H-pyran-4-yl)ethyl)-1H-imidazo[4,5-b]pyrazin-2(3H)-one]	293 to 295 °C
NCc1nc(-c2ccc(-c3cnc4[nH]c(=O)n(CCC5CCOCC5)c4n3)cc2)n[nH]1 [Compound 220, 6-(4-(5-(aminomethyl)-1H-1,2,4-triazol-3-yl)phenyl)-1-(2-(tetrahydro-2H-pyran-4-yl)ethyl)-1H-imidazo[4,5-b]pyrazin-2(3H)-one]	258 to 260 °C
O=c1[nH]c2ncc(-c3ccc4[nH]cnc4c3)nc2n1CCC1CCOCC1 [Compound 227, 6-(1H-benzo[d]imidazol-5-yl)-1-(2-(tetrahydro-2H-pyran-4-yl)ethyl)-1H-imidazo[4,5-b]pyrazin-2(3H)-one]	264 to 265 °C
O=c1[nH]c2ncc(-c3cncnc3)nc2n1CC1CCCCC1 [Compound 230, 1-(Cyclohexylmethyl)-6-(pyrimidin-5-yl)-1H-imidazo[4,5-b]pyrazin-2(3H)-one]	> 260 °C
O=c1[nH]c2ncc(-c3ccc(F)nc3)nc2n1CC1CCOCC1 [Compound 231, 6-(6-Fluoropyridin-3-yl)-1-((tetrahydro-2H-pyran-4-yl)methyl)-1H-imidazo[4,5-b]pyrazin-2(3H)-one]	220 to 222 °C
Nc1ccc(-c2cnc3[nH]c(=O)n(CC4CCOCC4)c3n2)cn1 [Compound 232, 6-(6-Aminopyridin-3-yl)-1-((tetrahydro-2H-pyran-4-yl)methyl)-1H-imidazo[4,5-b]pyrazin-2(3H)-one]	> 260 °C
CNc1ccc(-c2cnc3[nH]c(=O)n(CC4CCOCC4)c3n2)cn1 [Compound 235, 6-(6-(Methylamino)pyridin-3-yl)-1-((tetrahydro-2H-pyran-4-yl)methyl)-1H-imidazo[4,5-b]pyrazin-2(3H)-one]	> 260 °C
Nc1ncc(-c2cnc3[nH]c(=O)n(CC4CCCCC4)c3n2)cn1 [Compound 236, 6-(2-aminopyrimidin-5-yl)-1-(cyclohexylmethyl)-1H-imidazo[4,5-b]pyrazin-2(3H)-one]	> 250 °C
